Assay: Drospirenone solubility in liquid excipients
Assay type: physicochemical
Conditions: weight-weight basis
Method: The solubility of drospirenone in liquid excipients was obtained using the following test method. Drospirenone was incrementally added to excipient until it stopped dissolving. The saturated solution was then filtered through a 0.45 μm polytetrafluoroethylene filter to remove excess drug particles. The concentration of drospirenone was then analyzed for drug using conventional high performance liquid chromatography methods. The values are reported as the percent solubility on a weight-weight basis.

solubility of drospirenone (in benzyl alcohol): 44.4%
solubility of drospirenone (in benzyl lactate): 22.6%
solubility of drospirenone (in glyceryl monooleate): 2.0%
solubility of drospirenone (in lauryl alcohol): 1.0%
solubility of drospirenone (in lauryl lactate): 1.4%
solubility of drospirenone (in methyl lactate): 11.6%
solubility of drospirenone (in methyl laurate): 0.6%
Structure (SMILES): C[C@]12CCC(=O)C=C1[C@@H]1C[C@@H]1[C@H]1[C@@H]3[C@@H]4C[C@@H]4[C@@]4(CCC(=O)O4)[C@@]3(C)CC[C@@H]12 [drospirenone, 6β,7β,15β,16β-dimethylene-3-oxo-17α-pregn-4-ene-21,17-carbolactone]

From US20090181075A1, “DROSPIRENONE CONTAINING TRANSDERMAL DRUG DELIVERY DEVICES AND METHODS OF DELIVERY THEREOF” (priority 2005, published 2009)
